Experimental data as given in article PMC9295122, “Sialic Acid Derivatives Inhibit SiaT Transporters and Delay Bacterial Growth” (ACS Chemical Biology, 2022).
Where two headings read alike, the source gives them in different places.

How the values were obtained:
[1] = Metabolic stability in human liver microsomes; format: in vitro ADME; conditions: for microsomal CLint at 1 µM: human liver microsomes, read-out: intrinsic clearance Clint; for Metabolic stability in human microsomes, Exp. 1 / Metabolic stability in human microsomes, Exp. 2: intrinsic clearance, 1 µM compound
Experimental: The assay was run in a 96-deep well format and solutions were prepared containing microsomes in phosphate buffer. The microsomes employed were from humans, rats, and mice. The reaction was initiated by addition of NADPH after preincubation at 37 °C with test compounds. The reaction was stopped by the addition of acetonitrile (ACN) at six time points (0, 5, 10, 15, 25, and 45 min), the samples were centrifuged, and the supernatant was diluted to determine the loss of compound by LC–MS/MS. Two incubations per compound per species. For further details regarding working concentrations, volumes, and final concentrations at incubation, refer to the supplementary section (Table S6). […]
Metabolic Metabolic Metabolic stability in stability in stability in Plasma-protein human mouse rat In vitro plasma stability binding by RED
Assay/compo microsome microsome microsome (% compound remaining after (% unbound und s s s 23 h) compound, (µL/min/m (µL/min/m (µL/min/m average n=2) g protein) g protein) g protein)
Exp. Exp. Exp. Exp. Exp. Exp. Hum Mou Ra Do Mini Hum Mou Ra […]
Conc. of W orki ng Vol ume i n Fi nal conc. At sol uti on assay incubation
577 m g / m L520 µ L0. […]

PmSiaT = molecular target: T1, PmSiaT (Proteus mirabilis, UniProt B4EZY7); test: nanoDSF thermal shift assay, PmSiaT; format: binding; conditions: for Average 1 / Average 2 / Average 3 / Replicate 1 / Replicate 2 / Replicate 3: PmSiaT Tm; for Average 1: average of experiment 1; for Average 2: average of experiment 2; for Average 3: average of experiment 3; for Replicate 1: experiment 1, second capillary; for Replicate 1 / Replicate 2 / Replicate 3 / Tm 1 / Tm2 / Tm 3 / Tm average overall / ΔTm at 1250 µM: 1.25 mM; for Replicate 2: experiment 2, second capillary; for Replicate 3: experiment 3, second capillary; for Tm 1: experiment 1, first capillary; for Tm2: experiment 2, first capillary; for Tm 3: experiment 3, first capillary; for Tm average overall / ΔTm at 1250 µM: three experiments; for ΔTm at 1250 µM: vs Neu5Ac, read-out: ΔTm average overall
T1 construct: made in house
T1 sequence (B4EZY7 1-496): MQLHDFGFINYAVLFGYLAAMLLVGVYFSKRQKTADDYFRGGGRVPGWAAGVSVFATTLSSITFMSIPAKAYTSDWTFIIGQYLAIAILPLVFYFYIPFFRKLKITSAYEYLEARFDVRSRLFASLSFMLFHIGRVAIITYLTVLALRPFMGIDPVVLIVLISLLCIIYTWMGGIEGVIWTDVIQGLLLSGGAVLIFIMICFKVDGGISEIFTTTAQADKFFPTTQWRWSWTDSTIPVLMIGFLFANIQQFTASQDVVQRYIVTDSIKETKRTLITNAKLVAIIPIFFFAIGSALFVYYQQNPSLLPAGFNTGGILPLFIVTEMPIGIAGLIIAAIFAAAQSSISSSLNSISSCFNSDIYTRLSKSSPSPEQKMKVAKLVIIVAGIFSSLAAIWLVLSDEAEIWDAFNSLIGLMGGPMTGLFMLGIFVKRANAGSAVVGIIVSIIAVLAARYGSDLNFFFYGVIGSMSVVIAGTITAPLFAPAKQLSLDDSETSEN
Method in brief: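 Protein at 2 μM in PBS with 0.0174% (w/v) DDM and ligand at 1.25 mM were heated from 25 to 95 °C at 1 °C/min, with 330/350 nm fluorescence ratio and its first derivative giving Tm. ΔTm is relative to the Neu5Ac Tm, averaged over 3 experiments with 2 capillaries each.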

LogD pH 7.4 shake flask = format: physicochemical; conditions: 1-octanol / phosphate buffer pH 7.4
Experimental: Distribution coefficients between 1-octanol and phosphate buffer pH 7.4 were determined with a shake flask method with the LC–UV detection of the compound concentration in both phases. The reported range was from −1 to +4.

[2] = PmSiaT, experiment 1, vs Neu5Ac, read-out: ΔTm 1
[3] = PmSiaT, experiment 2, vs Neu5Ac, read-out: ΔTm 2
[4] = nanoDSF, relative to Neu5Ac, ligand 1.25 mM, <−2.0 °C nonbinder, read-out: PmSiaT ΔTm
[5] = PmSiaT, experiment 3, vs Neu5Ac, read-out: ΔTm 3

Structure (SMILES)	microsomal CLint at 1 µM [1] [µL/min/mg]	Metabolic stability in human microsomes, Exp. 1 [1] [µL/min/mg protein]	Metabolic stability in human microsomes, Exp. 2 [1] [µL/min/mg protein]	Average 1 (PmSiaT) [°C]	Average 2 (PmSiaT) [°C]	Average 3 (PmSiaT) [°C]	Replicate 1 (PmSiaT) [°C]	Replicate 2 (PmSiaT) [°C]	Replicate 3 (PmSiaT) [°C]	Tm 1 (PmSiaT; PmSiaT) [°C]	ΔTm (PmSiaT; [2]) [°C]	Tm2 (PmSiaT; PmSiaT) [°C]	ΔTm (PmSiaT; [3]) [°C]	Tm 3 (PmSiaT; PmSiaT) [°C]	Tm average overall (PmSiaT; PmSiaT) [°C]	ΔTm at 1250 µM (PmSiaT; PmSiaT) [°C]	ΔTm (PmSiaT; [4]) [°C]	logD (LogD pH 7.4 shake flask)	ΔTm (PmSiaT; [5]) [°C]
CC(=O)NC1C(OCc2ccccc2)CC(O)(C(=O)O)OC1C(O)C(O)CO (centres unmarked) [Compound 3a]	< 10	< 10	< 10	54.6	53.8	54.1	54.6	53.9	54.2	54.5	5.6	53.7	4.6	54.0	54.2	5	4.8 ± 0.5	< -0.5	–
CC(=O)NC1C(OCc2cc(F)cc(F)c2)CC(O)(C(=O)O)OC1C(O)C(O)CO (centres unmarked) [Compound 3e]	< 10	< 10	< 10	56.7	55.2	56.1	56.8	55.2	56.1	56.7	7.7	55.2	6	56.0	56.0	6.8	6.8 ± 0.9	< -0.5	6.8
CC(=O)NC1C(OCc2cc(Br)cc(Br)c2)CC(O)(C(=O)O)OC1C(O)C(O)CO (centres unmarked) [Compound 3f]	< 10	< 10	< 10	–	62.8	63.7	64.2	63.0	63.6	63.9	15	62.6	13.6	63.8	63.5	–	14.3	< 0	–
CC(=O)N[C@H]1[C@H]([C@H](O)[C@H](O)CO)OC(O)(C(=O)O)C[C@@H]1O (some centres unmarked) [Neu5Ac, 5-N-acetyl neuraminic acid, reference compound]	–	–	–	49.0	49.2	49.3	48.8	49.2	49.3	49.2	0	49.1	0	49.3	49.1	0	0	–	0
